Literature values as cited in patent EP4810022A1, “MICROPARTICLES COMPRISING TIRZEPATIDE OR PHARMACEUTICALLY ACCEPTABLE SALT THEREOF, AND MANUFACTURING METHOD THEREFOR” (Inventage Lab Inc., priority 2024, dated 2025).

Experiments:
[1] = when taken for one year
[2] = reported

SMILES | body weight loss [1] | side effects [2]
CCCCCCCCCCC[C@@H](C[C@@H]1OC(=O)[C@H]1CCCCCC)OC(=O)[C@H](CC(C)C)NC=O [orlistat] | about 4 kg | 
Cc1c(C(=O)NN2CCCCC2)nn(-c2ccc(Cl)cc2Cl)c1-c1ccc(Cl)cc1 [rimonabant] |  | central nervous system side effects
CC(C)CC(N(C)C)C1(c2ccc(Cl)cc2)CCC1 (stereo not drawn) [sibutramine] |  | cardiovascular side effects
